Columns and labels:
[1] = test system: hM3Dq-mCherry expressing neurons; experiment: Electrophysiological study of hypothalamus slices, current-clamp firing; type: cell-based; settings: bath-application, CNO 1 μM, slices of Q-hM3D mice
Protocol: The mice were decapitated under deep anesthesia using isoflurane (Pfizer). The brains were extracted and cooled in an ice-cold cutting solution containing the following (mM): 125 mM choline chloride, 25 mM NaHCO3, 10 mM D(+)-glucose, 7 mM MgCl2, 2.5 mM KCl, 1.25 mM NaH2PO4, and 0.5 mM CaCl2) bubbled with O2 (95%) and CO2 (5%). Horizontal brain slices (thickness of 250 μm) including the hypothalamus were prepared using a vibratome (VT1200S, Leica) and were maintained at room temperature for one hour in artificial CSF (ACSF) containing the following (mM): 125 mM NaCl, 26 mM NaHCO3, 10 mM D(+)-glucose, 2.5 mM KCl, 2 mM CaCl2), and 1 mM MgSO4 bubbled with O2 (95%) and CO2 (5%). The electrodes (5 to 8 MΩ) were filled with an internal solution containing the following (mM): 125 mM K-gluconate, 10 mM HEPES, 10 mM phosphocreatine, 0.05 mM tolbutamide, 4 mM NaCl, 4 mM ATP, 2 mM MgCl2, 0.4 mM GTP, and 0.2 mM EGTA, with a pH of 7.3 and adjusted with KOH). Firing of hM3Dq-mCherry expressing neurons was recorded in a current-clamp mode at a temperature of 30° C. CNO (1 μM) was bath-applied, and the effect was examined. The membrane voltage and data acquisition were controlled using a combination of the MultiClamp 700B amplifier, the Digidata 1440A A/D converter and Clampex 10.3 software (Molecular Devices). […]

[2] = target: T1, hM3Dq in iCre-positive neurons (Homo sapiens, UniProt P20309, A239G/Y149C); experiment: Infrared thermography and behaviour of Qrfp-iCre; Rosa26^dreaddm3 mice after IP CNO; type: in vivo
T1 construct: mCherry (C); expressed in transfected cells; host or cells: iCre-expressing neurons of Qrfp-iCre; Rosa26^dreaddm3 mice (CAG-hM3Dq-mCherry at the Rosa26 locus, in vivo)
Excerpt: For thermographic analysis, the mice were inserted into an experiment cage (25×15×10 cm) and monitored using an infrared thermal imaging camera (InfReC R500 EX; Nippon Avionics) placed 30 cm above the cage floor. To clearly detect the surface temperature, the back hair was removed using hair clippers one day prior to the start of the experiment. Thermograms of DREADD and optogenetic experiments were collected at 0.5 Hz and 1 Hz, respectively, and analyzed using the InfReC Analyzer NS9500 Professional software (Nippon Avionics). The highest temperature of one frame was used as the TS of the animal (FIG. 1d).
(§1) The Dreadd agonist CNO (clozapine N-oxide, Abcam, ab141704) was dissolved in physiological saline at a dose of 100 μg/mL, and the solution was frozen at −20° C. The CNO solution was thawed on site and then administered to each mouse intraperitoneally at a dose of 1 mg/kg. The adenosineAl receptor agonist CHA (N^6-cyclohexyl adenosine, Sigma-Aldrich, C9901) was dissolved in physiological saline at a concentration of 250 μg/mL, and the solution was administered intraperitoneally to each mouse at a dose of 2.5 mg/kg.

hM3Dq in Q-neurons = target: T2, hM3Dq in Q-neurons (Homo sapiens, UniProt P20309, A239G/Y149C); experiment: Estimation of thermoregulatory parameters G, H and TR during CNO-induced QIH in Q-hM3D mice; type: in vivo
T2 construct: mCherry (C); expressed in transfected cells; host or cells: QRFP-producing (Q) neurons of Qrfp-iCre mice transduced in vivo with AAV10-EF1α-DIO-hM3Dq-mCherry
Excerpt: In order to record the core body temperature, oxygen consumption amount, EEG, ECG, and respiratory patterns, each animal was housed in a temperature controlled chamber (HC-100, Shin Factory or LP-400P-AR, Nippon Medical & Chemical Instruments Co., Ltd.). In order to continuously record the TB (intraperitoneal temperature), a telemetry temperature sensor (TA11TA-F10, DSI) was implanted into the animal's abdominal cavity under general inhalation anesthesia at least 7 days prior to the recording. The VO 2 and carbon dioxide discharge rate (VCO2) of the animal were continuously recorded using a respiratory gas analyzer (ARCO-2000 mass spectrometer, ARCO System). The respiratory quotient was calculated from the ratio of VCO2/VO2.
as §1
To evaluate the thermoregulatory system under QIH and normal conditions, the heat loss and heat production of the animals were described in a hierarchical multilayer model (FIG. 3c to FIG. 3k, code folder QIH_GTRH). Three parameters of G, TR and H under two metabolic conditions, that is, normal and QIH conditions, were estimated from a metabolically stable state of the animals at various TAs. The detailed method has been previously described^3. In summary, a linear model formed from the controllable parameter TA and the observable parameters TB and VO2 was fitted to the experimental results for both TB and VO2 using TA as a predictor having normal distribution noise. Next, G, TR, and H were estimated using the post-distribution of the slope and intercept coefficients for each model. […]

T2 sequence (P20309 whole entry Y149C/A239G, the tested form may be a part): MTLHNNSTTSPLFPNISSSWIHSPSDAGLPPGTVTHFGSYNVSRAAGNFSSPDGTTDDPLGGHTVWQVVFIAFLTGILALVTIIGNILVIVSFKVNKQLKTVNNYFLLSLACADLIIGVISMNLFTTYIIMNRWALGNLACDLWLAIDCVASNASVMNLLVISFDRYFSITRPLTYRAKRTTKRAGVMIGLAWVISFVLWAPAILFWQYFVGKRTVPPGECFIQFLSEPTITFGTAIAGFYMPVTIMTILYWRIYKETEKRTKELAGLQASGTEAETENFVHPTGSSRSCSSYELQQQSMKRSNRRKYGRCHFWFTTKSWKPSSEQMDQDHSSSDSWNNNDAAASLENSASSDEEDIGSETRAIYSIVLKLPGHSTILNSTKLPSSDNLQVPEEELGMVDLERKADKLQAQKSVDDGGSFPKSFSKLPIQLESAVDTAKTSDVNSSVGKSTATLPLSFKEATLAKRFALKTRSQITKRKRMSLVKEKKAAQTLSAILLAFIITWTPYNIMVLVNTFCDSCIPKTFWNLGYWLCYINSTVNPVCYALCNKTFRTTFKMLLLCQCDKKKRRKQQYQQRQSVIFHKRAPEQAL
T1 sequence (P20309 whole entry Y149C/A239G): as the sequence (P20309 whole entry Y149C/A239G, the tested form may be a part) above

C[N+]1([O-])CCN(C2=Nc3cc(Cl)ccc3Nc3ccccc32)CC1 [CNO, clozapine N-oxide]
excitation of mCherry-positive neurons [1]: strongly excited | duration of TS reduction [2]: approximately 12 hours | onset of TS reduction after administration [2]: approximately 5 minutes | onset of sustained immobility after injection ([2]; intraperitoneal CNO): approximately 30 minutes | surface body temperature (TS) effect ([2]; thermography camera): significantly sustained hypothermia | reduction in H at each median (hM3Dq in Q-neurons; QIH versus normal state): 95.3% | TB and VO2 versus control at every TA (hM3Dq in Q-neurons; eleven hours after IP injection, TA 8-32° C.): low TB and VO2 | difference in TR at each median (hM3Dq in Q-neurons; normal versus QIH): 8.41 °C
